Test results published in patent publication US8952024B2, “Herbicidal pyrimidone derivatives” (E I du Pont de Nemours and Company, priority 2009, dated 2015).

Legend:
Assay in all cases: Test B pre-/postemergence plant response
Type in all cases: in vivo
[1] = system: blackgrass (Alopecurus myosuroides)
How it was run: (§1)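 Plants treated either at seeding (loam/sand soil) or postemergence at 2 to 18 cm height, using a surfactant-containing non-phytotoxic solvent formulation. Evaluation was visual after 13 to 15 days, 0 to 100 scale relative to controls.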

[2] = system: wild oat (Avena fatua)
How it was run: as §1

[3] = system: kochia (Kochia scoparia); conditions: for Plant response rating, Kochia: Postemergence, scale 0 to 100 (0 no effect, 100 complete control)
How it was run: as §1

[4] = system: wheat (Triticum aestivum)
How it was run: as §1

[5] = system: Surinam grass (Brachiaria decumbens); conditions: for Plant response rating, Surinam Grass: Postemergence, scale 0 to 100 (0 no effect, 100 complete control)
How it was run: as §1

[6] = system: corn (Zea mays)
How it was run: as §1

[7] = system: goosegrass (Eleusine indica)
How it was run: as §1

[8] = system: lambsquarters (Chenopodium album)
How it was run: as §1

[9] = system: pigweed (Amaranthus retroflexus)
How it was run: as §1

[10] = system: yellow nutsedge (Cyperus esculentus); conditions: for Plant response rating, Nutsedge, Yellow: Postemergence, scale 0 to 100 (0 no effect, 100 complete control)
How it was run: as §1

[11] = system: ragweed (common ragweed, Ambrosia elatior); conditions: for Plant response rating, Ragweed: Postemergence, scale 0 to 100 (0 no effect, 100 complete control)
How it was run: as §1

[12] = system: large crabgrass (Digitaria sanguinalis)
How it was run: as §1

[13] = system: soybean (Glycine max); conditions: for Plant response rating, Soybean: Postemergence, scale 0 to 100 (0 no effect, 100 complete control)
How it was run: as §1

[14] = system: Italian ryegrass (Lolium multiflorum); conditions: for Plant response rating, Ryegrass, Italian: Postemergence, scale 0 to 100 (0 no effect, 100 complete control)
How it was run: as §1

[15] = system: johnsongrass (Sorghum halepense)
How it was run: as §1

[16] = system: downy bromegrass (Bromus tectorum)
How it was run: as §1

[17] = system: velvetleaf (Abutilon theophrasti); conditions: for Plant response rating, Velvetleaf: Postemergence, scale 0 to 100 (0 no effect, 100 complete control)
How it was run: as §1

[18] = system: woolly cupgrass (Eriochloa villosa); conditions: for Plant response rating, Cupgrass, Woolly: Postemergence, scale 0 to 100 (0 no effect, 100 complete control)
How it was run: as §1

[19] = 31 g ai/ha, postemergence, scale 0 to 100, 0 is no effect, 100 is complete control
[20] = 62 g ai/ha, postemergence, 0 is no effect, 100 is complete control, 13 to 15 days
[21] = Postemergence, 125 g ai/ha, scale 0 to 100 (0 no effect, 100 complete control)
[22] = Postemergence, 250 g ai/ha, scale 0 to 100 (0 no effect, 100 complete control)

CCCn1c(-c2cccc(OC)c2)ncc(C(=O)C2=C(O)CCCC2=O)c1=O [Compound 100]
Plant response rating, Blackgrass [1, 19]: 0 | Blackgrass plant response rating (0 to 100 scale) [1, 20]: 5 | Plant response rating, Blackgrass [1, 21]: 10 | Plant response rating, Blackgrass [1, 22]: 40 | Plant response rating, Oat, Wild [2, 19]: 0 | Oat, Wild plant response rating (0 to 100 scale) [2, 20]: 10 | Plant response rating, Oat, Wild [2, 21]: 30 | Plant response rating, Oat, Wild [2, 22]: 30 | Kochia plant response rating (0 to 100 scale) [3, 20]: 95 | Plant response rating, Kochia ([3]; 125 g ai/ha): 98 | Plant response rating, Kochia ([3]; 250 g ai/ha): 100 | Wheat plant response rating (0 to 100 scale) [4, 20]: 5 | Plant response rating, Wheat [4, 21]: 15 | Surinam Grass plant response rating (0 to 100 scale) [5, 20]: 65 | Plant response rating, Surinam Grass ([5]; 125 g ai/ha): 65 | Plant response rating, Surinam Grass ([5]; 250 g ai/ha): 75 | Plant response rating, Corn [6, 19]: 0 | Corn plant response rating (0 to 100 scale) [6, 20]: 10 | Plant response rating, Corn [6, 21]: 20 | Plant response rating, Corn [6, 22]: 45 | Plant response rating, Goosegrass [7, 19]: 70 | Goosegrass plant response rating (0 to 100 scale) [7, 20]: 70 | Plant response rating, Goosegrass [7, 21]: 75 | Plant response rating, Goosegrass [7, 22]: 75 | Plant response rating, Lambsquarters [8, 19]: 95 | Lambsquarters plant response rating (0 to 100 scale) [8, 20]: 98 | Plant response rating, Lambsquarters [8, 21]: 98 | Plant response rating, Lambsquarters [8, 22]: 98 | Plant response rating, Pigweed [9, 19]: 90 | Pigweed plant response rating (0 to 100 scale) [9, 20]: 98 | Plant response rating, Pigweed [9, 21]: 98 | Plant response rating, Pigweed [9, 22]: 98 | Nutsedge, Yellow plant response rating (0 to 100 scale) [10, 20]: 5 | Plant response rating, Nutsedge, Yellow ([10]; 125 g ai/ha): 15 | Plant response rating, Nutsedge, Yellow ([10]; 250 g ai/ha): 40 | Ragweed plant response rating (0 to 100 scale) [11, 20]: 70 | Plant response rating, Ragweed ([11]; 125 g ai/ha): 75 | Plant response rating, Ragweed ([11]; 250 g ai/ha): 80 | Plant response rating, Crabgrass, Large [12, 19]: 55 | Crabgrass, Large plant response rating (0 to 100 scale) [12, 20]: 60 | Plant response rating, Crabgrass, Large [12, 21]: 75 | Plant response rating, Crabgrass, Large [12, 22]: 80 | Soybean plant response rating (0 to 100 scale) [13, 20]: 98 | Plant response rating, Soybean ([13]; 125 g ai/ha): 100 | Plant response rating, Soybean ([13]; 250 g ai/ha): 100 | Ryegrass, Italian plant response rating (0 to 100 scale) [14, 20]: 5 | Plant response rating, Ryegrass, Italian ([14]; 125 g ai/ha): 10 | Plant response rating, Ryegrass, Italian ([14]; 250 g ai/ha): 50 | Plant response rating, Johnsongrass [15, 19]: 0 | Johnsongrass plant response rating (0 to 100 scale) [15, 20]: 5 | Plant response rating, Johnsongrass [15, 21]: 10 | Plant response rating, Johnsongrass [15, 22]: 25 | Plant response rating, Bromegrass, Downy [16, 19]: 5 | Bromegrass, Downy plant response rating (0 to 100 scale) [16, 20]: 10 | Plant response rating, Bromegrass, Downy [16, 21]: 15 | Plant response rating, Bromegrass, Downy [16, 22]: 35 | Velvetleaf plant response rating (0 to 100 scale) [17, 20]: 70 | Plant response rating, Velvetleaf ([17]; 125 g ai/ha): 70 | Plant response rating, Velvetleaf ([17]; 250 g ai/ha): 85 | Cupgrass, Woolly plant response rating (0 to 100 scale) [18, 20]: 65 | Plant response rating, Cupgrass, Woolly ([18]; 125 g ai/ha): 70 | Plant response rating, Cupgrass, Woolly ([18]; 250 g ai/ha): 75
